{"source": "patent US20100256105A1", "about": "“NOVEL COMPOUNDS” (AstraZeneca R&D, priority 2009, published 2010)", "data": [{"target": "T1, recombinant human GR (Homo sapiens, UniProt P04150)", "T1 construct": "purchased Panvera/Invitrogen P2812 (kit P2893)", "T1 sequence (P04150 1-777)": "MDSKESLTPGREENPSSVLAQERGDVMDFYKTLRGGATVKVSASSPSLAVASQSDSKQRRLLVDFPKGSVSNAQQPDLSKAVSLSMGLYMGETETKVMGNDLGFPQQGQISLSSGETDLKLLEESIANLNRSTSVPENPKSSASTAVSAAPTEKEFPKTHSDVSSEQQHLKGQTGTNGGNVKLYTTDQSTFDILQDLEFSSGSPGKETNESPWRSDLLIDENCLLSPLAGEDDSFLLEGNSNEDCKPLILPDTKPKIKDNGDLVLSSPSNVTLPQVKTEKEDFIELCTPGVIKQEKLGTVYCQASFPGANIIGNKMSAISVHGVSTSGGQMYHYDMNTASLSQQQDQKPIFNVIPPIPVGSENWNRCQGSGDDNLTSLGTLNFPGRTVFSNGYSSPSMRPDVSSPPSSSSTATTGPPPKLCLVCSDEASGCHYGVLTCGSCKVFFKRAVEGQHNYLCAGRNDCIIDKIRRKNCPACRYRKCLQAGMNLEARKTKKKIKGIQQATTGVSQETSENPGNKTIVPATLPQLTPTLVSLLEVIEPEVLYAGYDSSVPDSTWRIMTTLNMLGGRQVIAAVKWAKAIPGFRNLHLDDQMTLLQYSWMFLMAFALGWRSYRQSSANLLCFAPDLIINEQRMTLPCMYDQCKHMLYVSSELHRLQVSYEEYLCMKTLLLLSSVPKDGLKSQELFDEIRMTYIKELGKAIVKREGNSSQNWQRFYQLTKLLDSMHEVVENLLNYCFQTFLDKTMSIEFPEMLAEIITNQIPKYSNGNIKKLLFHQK", "test": "Human Glucocorticoid Receptor (GR) Assay, fluorescence polarization", "conditions": "GS Red tracer, 2 hours at room temperature, 100% control 10 μM Dexamethasone, read-out: Inhibition of GR binding, IC50", "description": "Human Glucocorticoid Receptor (GR) Assay The assay is based on a commercial kit from Panvera/Invitrogen (Part number P2893). The assay technology is fluorescence polarization. The kit utilises recombinant human GR (Panvera, Part number P2812), a Fluoromone™ labelled tracer (GS Red, Panvera, Part number P2894) and a Stabilizing Peptide 10× (Panvera, Part number P2815). The GR and Stabilizing Peptide reagents are stored at −70° C. while the GS Red is stored at −20° C. Also included in the kit are 1M DTT (Panvera, Part number P2325, stored at −20° C.) and GR Screening buffer 10× (Panvera, Part number P2814, stored at −70° C. initially but once thawed stored at room temperature). Avoid repeated freeze/thaws for all reagents. The GR Screening buffer 10× comprises 100 mM potassium phosphate, 200 mM sodium molybdate, 1 mM EDTA and 20% DMSO. Test compounds (1 μL) and controls (1 μL) in 100% DMSO were added to black polystyrene 384-well plates (Greiner low volume black flat-bottom, part number 784076). 0% control was 100% DMSO and 100% control was 10 μM Dexamethasone. Background solution (8 μL; assay buffer 10×, Stabilizing Peptide, DTT and ice cold MQ water) was added to the background wells. GS Red solution (7 μL; assay buffer 10×, Stabilizing Peptide, DTT, GS Red and ice cold water) was added to all wells except background wells. GR solution (7 μL; assay buffer 10×, Stabilizing Peptide, DTT, GR and ice cold water) was added to all wells. The plate was sealed and incubated in a dark at room temperature for 2 hours. The plate was read in an Analyst plate reader (LJL Biosystems/Molecular Devices Corporation) or other similar plate reader capable of recording fluorescence polarization (excitation wavelength 530 nm, emission wavelength 590 nm and a dichroic mirror at 561 nm).", "units": {"IC50": "nM"}, "values": [{"compound": "CC1=C[C@@H]2[C@H]([C@@H](O)C[C@@]3(C)[C@H]2CC[C@]3(OC(=O)C2CC2)C(=O)SCC#N)[C@@]2(C)Cc3cnn(-c4ccc(F)nc4)c3C=C12", "note": "[Example 13, (1R,3aS,3bS,10aR,10bS,11S,12aS)-1-{[cyanomethyl)sulfanyl]carbonyl}-7-(6-fluoropyridin-3-yl)-11-hydroxy-5,10a,12a-trimethyl-1,2,3,3a,3b,7,10,10a,10b,11,12,12a-dodecahydrocyclopenta[5,6]naphtho [1,2-f]indazol-1-yl cyclopropanecarboxylate]", "IC50": 1.5}, {"compound": "C[C@]12Cc3cnn(-c4ccc(F)nc4)c3C=C1C=C[C@@H]1[C@@H]2[C@@H](O)C[C@@]2(C)[C@H]1CC[C@]2(OC(=O)c1cocn1)C(=O)SCF", "note": "[Example 5, (1R,3aS,3bS,10aR,10bS,11S,12aS)-1-{[(fluoromethyl)sulfanyl]carbonyl}-7-(6-fluoropyridin-3-yl)-11-hydroxy-10a,12a-dimethyl-1,2,3,3a,3b,7,10,10a,10b,11,12,12a-dodecahydrocyclopenta[5,6]naphtho [1,2-f]indazol-1-yl 1,3-oxazole-4-carboxylate]", "IC50": 1.5}, {"compound": "C[C@]12Cc3cnn(-c4ccc(F)nc4)c3C=C1C=C[C@@H]1[C@@H]2[C@@H](O)C[C@@]2(C)[C@H]1CC[C@]2(OC(=O)c1cocn1)C(=O)SCC#N", "note": "[Example 6, (1R,3aS,3bS,10aR,10bS,11S,12aS)-1-{[cyanomethyl)sulfanyl]carbonyl}-7-(6-fluoropyridin-3-yl)-11-hydroxy-10a,12a-dimethyl-1,2,3,3a,3b,7,10,10a,10b,11,12,12a-dodecahydrocyclopenta[5,6]naphtho [1,2-f]indazol-1-yl 1,3-oxazole-4-carboxylate]", "IC50": 1.8}, {"compound": "CC1=C[C@@H]2[C@H]([C@@H](O)C[C@@]3(C)[C@H]2CC[C@]3(OC(=O)c2cocn2)C(=O)SCF)[C@@]2(C)Cc3cnn(-c4ccc(F)nc4)c3C=C12", "note": "[Example 14, (1R,3aS,3bS,10aR,10bS,11S,12aS)-1-{[(fluoromethyl)sulfanyl]carbonyl}-7-(6-fluoropyridin-3-yl)-11-hydroxy-5,10a,12a-trimethyl-1,2,3,3a,3b,7,10,10a,10b,11,12,12a-dodecahydrocyclopenta[5,6]naphtho [1,2-f]indazol-1-yl 1,3-oxazole-4-carboxylate]", "IC50": 2.9}, {"compound": "CCC(=O)O[C@]1(C(=O)SCC#N)CC[C@H]2[C@@H]3C=CC4=Cc5c(cnn5-c5ccc(F)nc5)C[C@]4(C)[C@H]3[C@@H](O)C[C@@]21C", "note": "[Example 10, (1R,3aS,3bS,10aR,10bS,11S,12aS)-1-{[(cyanomethyl)sulfanyl]carbonyl}-7-(6-fluoropyridin-3-yl)-11-hydroxy-10a,12a-dimethyl-1,2,3,3a,3b,7,10,10a,10b,11,12,12a-dodecahydrocyclopenta[5,6]naphtho [1,2-f]indazol-1-yl propanoate]", "IC50": 0.83}, {"compound": "CC1=C[C@@H]2[C@H]([C@@H](O)C[C@@]3(C)[C@H]2C[C@@H](C)[C@]3(OC(=O)c2ccco2)C(=O)SCC#N)[C@@]2(C)Cc3cnn(-c4ccccc4)c3C=C12", "note": "[Example 18, (1R,2R,3aS,3bS,10aR,10bS,11S,12aS)-1-{[(cyanomethyl)sulfanyl]carbonyl}-11-hydroxy-2,5,10a,12a-tetramethyl-7-phenyl-1,2,3,3a,3b,7,10,10a,- 10b,11,12,12a-dodecahydro-cyclopenta[5,6]naphtho[1,2-f]indazol-1-yl furan-2-carboxylate]", "IC50": 12}, {"compound": "CC1=C[C@@H]2[C@H]([C@@H](O)C[C@@]3(C)[C@H]2CC[C@]3(OC(=O)c2cocn2)C(=O)SCC#N)[C@@]2(C)Cc3cnn(-c4ccc(F)nc4)c3C=C12", "note": "[Example 15, (1R,3aS,3bS,10aR,10bS,11S,12aS)-1-{[cyanomethyl)sulfanyl]carbonyl}-7-(6-fluoropyridin-3-yl)-11-hydroxy-5,10a,12a-trimethyl-1,2,3,3a,3b,7,10,10a,10b,11,12,12a-dodecahydrocyclopenta[5,6]naphtho [1,2-f]indazol-1-yl 1,3-oxazole-4-carboxylate]", "IC50": 3.7}, {"compound": "COCC(=O)O[C@]1(C(=O)SCF)CC[C@H]2[C@@H]3C=C(C)C4=Cc5c(cnn5-c5ccc(F)nc5)C[C@]4(C)[C@H]3[C@@H](O)C[C@@]21C", "note": "[Example 16, (1R,3aS,3bS,10aR,11S,12aS)-1-{[(fluoromethyl)sulfanyl]carbonyl}-7-(6-fluoropyridin-3-yl)-11-hydroxy-5,10a,12a-trimethyl-1,2,3,3a,3b,7,10,10a,10b,11,12,12a-dodecahydrocyclopenta[5,6]naphtho [1,2-f]indazol-1-yl methoxyacetate]", "IC50": 1.5}, {"compound": "C[C@]12Cc3cnn(-c4ccc(F)nc4)c3C=C1C=C[C@@H]1[C@@H]2[C@@H](O)C[C@@]2(C)[C@H]1CC[C@]2(OC(=O)C1CC1)C(=O)SCF", "note": "[Example 8, (1R,3aS,3bS,10aR,10bS,11S,12aS)-1-{[(fluoromethyl)sulfanyl]carbonyl}-7-(6-fluoropyridin-3-yl)-11-hydroxy-10a,12a-dimethyl-1,2,3,3a,3b,7,10,10a,10b,11,12,12a-dodecahydrocyclopenta[5,6]naphtho [1,2-f]indazol-1-yl cyclopropanecarboxylate]", "IC50": 1.4}, {"compound": "C[C@]12Cc3cnn(-c4ccc(F)nc4)c3C=C1C=C[C@@H]1[C@@H]2[C@@H](O)C[C@@]2(C)[C@H]1CC[C@]2(OC(=O)C1CC1)C(=O)SCC#N", "note": "[Example 9, (1R,3aS,3bS,10aR,10bS,11S,12aS)-1-{[(cyanomethyl)sulfanyl]carbonyl}-7-(6-fluoropyridin-3-yl)-11-hydroxy-10a,12a-dimethyl-1,2,3,3a,3b,7,- 10,10a,10b,11,12,12a-dodecahydro-cyclopenta[5,6]naphtho[1,2-f]indazol-1-yl cyclopropanecarboxylate]", "IC50": 1}, {"compound": "CCC(=O)O[C@]1(C(=O)SCF)CC[C@H]2[C@@H]3C=CC4=Cc5c(cnn5-c5ccc(F)nc5)C[C@]4(C)[C@H]3[C@@H](O)C[C@@]21C", "note": "[Example 3, (1R,3aS,3bS,10aR,10bS,11S,12aS)-1-{[(Fluoromethyl)sulfanyl]carbonyl}-7-(6-fluoropyridin-3-yl)-11-hydroxy-10a,12a-dimethyl-1,2,3,3a,3b,7,10,10a,10b,11,12,12a-dodecahydrocyclopenta[5,6]naphtho[1,2-f]indazol-1-ylpropanoate]", "IC50": 1.4}, {"compound": "CCC(=O)O[C@]1(C(=O)SCC#N)[C@H](C)C[C@H]2[C@@H]3C=C(C)C4=Cc5c(cnn5-c5ccccc5)C[C@]4(C)[C@H]3[C@@H](O)C[C@@]21C", "note": "[Example 17, (1R,2R,3aS,3bS,10aR,10bS,11S,12aS)-1-{[(cyanomethyl)sulfanyl]carbonyl}-11-hydroxy-2,5,10a,12a-tetramethyl-7-phenyl-1,2,3,3a,3b,7,10,10a,- 10b,11,12,12a-dodecahydro-cyclopenta[5,6]naphtho[1,2-f]indazol-1-yl propanoate]", "IC50": 4.8}, {"compound": "CC1=C[C@@H]2[C@H]([C@@H](O)C[C@@]3(C)[C@H]2CC[C@]3(OC(=O)C2CC2)C(=O)SCF)[C@@]2(C)Cc3cnn(-c4ccc(F)nc4)c3C=C12", "note": "[Example 12, (1R,3aS,3bS,10aR,10bS,11S,12aS)-1-{[(fluoromethyl)sulfanyl]carbonyl}-7-(6-fluoropyridin-3-yl)-11-hydroxy-5,10a,12a-trimethyl-1,2,3,3a,3b,7,- 10,10a,10b,11,12,12a-dodecahydro-cyclopenta[5,6]naphtho[1,2-f]indazol-1-yl cyclopropanecarboxylate]", "IC50": 1.6}]}]}
